According to patent US20060062846A1, “Alfuzosin tablets and synthesis” (Cimex Pharma AG, priority 2004, published 2006):
Where a name gives a salt, the structure may show the parent alone.

What was measured:
[1] = solubility in water; assay type: physicochemical
[2] = immediate-release tablet, cited from earlier work

solubility in water [1]: freely soluble in water
SMILES: COc1cc2nc(N(C)CCCNC(=O)C3CCCO3)nc(N)c2cc1OC (racemic) [alfuzosin hydrochloride, (R,S)-N-(3-(4-amino-6,7-dimethoxy-2-quinazolinyl)methylamino) propyl) tetrahydro-2-furancarboxamide hydrochloride]
Peak plasma concentrations reached after administration (time) [2]: ≤ 1 h
inter-individual fluctuations in plasma concentrations [2]: sevenfold
Terminal elimination half-life ([2]; range printed (1-10 h)): approximately 5 h
Bioavailability ([2]; range printed (45-90%)): 64%
